Results: patent publication EP4799624A2 (priority 2021, dated 2023)

Assay: in vivo
Conditions: mouse, po

SMILES: Cc1c(-c2ccc(O)cc2)n(Cc2ccc(OCCN3CCCCC3)cc2)c2ccc(O)cc12 [Pipendoxifene, 2-(4-hydroxyphenyl)-3-methyl-1-[[4-(2-piperidin-1-ylethoxy)phenyl]methyl]indol-5-ol]
- NOAEL: ≥ 750 mg/kg/day
